Data reported in patent publication US20170216328A1, “METHODS AND COMPOSITIONS FOR MICROBIOME ALTERATION” (Ritter Pharmaceuticals, Inc., priority 2014, published 2017).

Test system: Bifidobacterium species and strains
Assay: Comparative growth of Bifidobacterium species and strains in scratch MRS with 2% carbohydrate
Format: cell-based
Experimental: The objective of the study was to determine the ability of various Bifidobacterium species and strains to grow on galactooligosaccharides
The growth of Lactobacillus and Bifidobacterium strains was evaluated in scratch MRS (Table 16) supplemented with 2% of a carbohydrate solution. The carbohydrates used in the experiments were: Glucose—Fisher; Lactose—Fisher; GOS1-95% GOS purity from Inalco SPA—Provided by Ritter Pharmaceuticals; GOS2-90% GOS purity from GTC—provided by Ritter Pharmaceuticals.
Carbohydrate stock solutions were filter sterilized and then added to either a scratch MRS formulation (Table 16), or a semisynthetic medium (Table 17).
Lactobacillus and Bifidobacterium cultures were propagated in MRS broth overnight, and then transferred once through the test medium. For growth experiments, cultures were inoculated into the MRS scratch medium containing one of the 4 carbohydrates to be examined. Growth was monitored either: **automatically, using a FLUOStar OPTIMA microtiter plate reader to monitor the change in absorbance (A600) as a function of the time. The strains were incubated at 37 C aerobically for these experiments; or ** manually, using a standard spectrophotometer to monitor the change in OD600 nm over time, in 5 ml liquid culture tubes. These cultures were incubated anaerobically at 37° C. in a COY anaerobic chamber, flushed with anaerobic gas. […]

SMILES: OC[C@H]1O[C@@H](O[C@H]2[C@H](O)[C@@H](O)C(O)O[C@@H]2CO)[C@H](O)[C@@H](O)[C@H]1O (stereo partly shown) [lactose]
- Growth of Bifidobacterium strains on lactose: none of the Bifidobacterium strains used in these experiments grew on lactose, except for B. pseudolongum
